Reference: ChEMBL document CHEMBL1139992, “Synthesis and biological activity of enantiomeric pairs of 5-vinylthiolactomycin congeners” (Bioorg Med Chem Lett, 2007)
Values after ≈ are worked out from the molar mass of the structure shown.

Tested on: Bacteroides fragilis
Test: Antimicrobial activity against Bacteroides fragilis GAI5560
Type: functional

Compound | MIC [µg/mL]
C=C/C(C)=C/[C@@]1(C)SC(=O)C=C1O | 128 (≈ 652 µM)
C=C[C@@]1(C)SC(=O)C(C)=C1O | > 128
CCCC/C=C/[C@@]1(C)SC(=O)C(C)=C1O | > 128
CCCC/C=C/[C@]1(C)SC(=O)C=C1O | > 128
CC/C=C/[C@@]1(C)SC(=O)C=C1O | > 128
C/C=C/[C@]1(C)SC(=O)C(C)=C1O | > 128
C/C=C/[C@]1(C)SC(=O)C=C1O | > 128
C=C[C@@]1(C)SC(=O)C=C1O | > 128
CCC/C=C/[C@@]1(C)SC(=O)C(C)=C1O | > 128
O=C(O)c1cn(C2CC2)c2cc(N3CCNCC3)c(F)cc2c1=O [CIPROFLOXACIN] | 4 (≈ 12.1 µM)
C=C/C(C)=C/[C@@]1(C)SC(=O)C(C)=C1O [THIOLACTOMYCIN] | 1 (≈ 4.76 µM)

Tested on: Haemophilus influenzae
Test: Antimicrobial activity against Haemophilus influenzae IID983
Type: functional

Compound | MIC [µg/mL]
C=C/C(C)=C/[C@@]1(C)SC(=O)C=C1O | 32 (≈ 163 µM)
C=C[C@@]1(C)SC(=O)C(C)=C1O | > 128
CCCC/C=C/[C@@]1(C)SC(=O)C(C)=C1O | > 128
CCCC/C=C/[C@]1(C)SC(=O)C=C1O | > 128
CC/C=C/[C@@]1(C)SC(=O)C=C1O | > 128
C/C=C/[C@]1(C)SC(=O)C(C)=C1O | > 128
C/C=C/[C@]1(C)SC(=O)C=C1O | > 128
C=C[C@@]1(C)SC(=O)C=C1O | > 128
CCC/C=C/[C@@]1(C)SC(=O)C(C)=C1O | > 128
O=C(O)c1cn(C2CC2)c2cc(N3CCNCC3)c(F)cc2c1=O [CIPROFLOXACIN] | 0.008 (≈ 0.0241 µM)
C=C/C(C)=C/[C@@]1(C)SC(=O)C(C)=C1O [THIOLACTOMYCIN] | 2 (≈ 9.51 µM)

Tested on: Moraxella catarrhalis
Test: Antimicrobial activity against Moraxella catarrhalis ATCC 25238
Type: functional

Compound | MIC [µg/mL]
C=C/C(C)=C/[C@]1(C)SC(=O)C(C)=C1O | > 128
C=C/C(C)=C/[C@@]1(C)SC(=O)C=C1O | 16 (≈ 81.5 µM)
C=C/C(C)=C/[C@]1(C)SC(=O)C=C1O | > 128
C=C[C@@]1(C)SC(=O)C(C)=C1O | > 128
CCCC/C=C/[C@@]1(C)SC(=O)C(C)=C1O | > 128
CCCC/C=C/[C@]1(C)SC(=O)C=C1O | > 128
CC/C=C/[C@@]1(C)SC(=O)C=C1O | > 128
C/C=C/[C@]1(C)SC(=O)C(C)=C1O | > 128
C/C=C/[C@]1(C)SC(=O)C=C1O | > 128
C=C[C@@]1(C)SC(=O)C=C1O | > 128
CCC/C=C/[C@@]1(C)SC(=O)C(C)=C1O | > 128
O=C(O)c1cn(C2CC2)c2cc(N3CCNCC3)c(F)cc2c1=O [CIPROFLOXACIN] | 0.031 (≈ 0.0936 µM)
C=C/C(C)=C/[C@@]1(C)SC(=O)C(C)=C1O [THIOLACTOMYCIN] | 0.25 (≈ 1.19 µM)

Tested on: Staphylococcus aureus
Test: Antimicrobial activity against Staphylococcus aureus
Type: functional

Compound | MIC [µg/mL]
C=C/C(C)=C/[C@]1(C)SC(=O)C(C)=C1O | > 128
C=C/C(C)=C/[C@@]1(C)SC(=O)C=C1O | > 128
C=C/C(C)=C/[C@]1(C)SC(=O)C=C1O | > 128
C=C[C@@]1(C)SC(=O)C(C)=C1O | > 128
CCCC/C=C/[C@@]1(C)SC(=O)C(C)=C1O | > 128
CCCC/C=C/[C@]1(C)SC(=O)C=C1O | > 128
CC/C=C/[C@@]1(C)SC(=O)C=C1O | > 128
C/C=C/[C@]1(C)SC(=O)C(C)=C1O | > 128
C/C=C/[C@]1(C)SC(=O)C=C1O | > 128
C=C[C@@]1(C)SC(=O)C=C1O | > 128
CCC/C=C/[C@@]1(C)SC(=O)C(C)=C1O | > 128
O=C(O)c1cn(C2CC2)c2cc(N3CCNCC3)c(F)cc2c1=O [CIPROFLOXACIN] | 0.063 (≈ 0.19 µM)
C=C/C(C)=C/[C@@]1(C)SC(=O)C(C)=C1O [THIOLACTOMYCIN] | 128 (≈ 609 µM)

Tested on: not listed separately
Test: Inhibition of type1 FAS in HepG2 cells
Type: cell-based, Homo sapiens

Compound | IC50 [µg/mL]
C=C/C(C)=C/[C@]1(C)SC(=O)C(C)=C1O | 43.7 (≈ 208 µM)
C=C1C(=O)O[C@@H](CCCCCCCC)[C@@H]1C(=O)O | 7.4 (≈ 29.1 µM)
C=C/C(C)=C/[C@@]1(C)SC(=O)C=C1O | > 80
C=C/C(C)=C/[C@]1(C)SC(=O)C=C1O | 19 (≈ 96.8 µM)
C=C[C@@]1(C)SC(=O)C(C)=C1O | > 80
CCCC/C=C/[C@@]1(C)SC(=O)C(C)=C1O | 33.7 (≈ 149 µM)
CCCC/C=C/[C@]1(C)SC(=O)C=C1O | 21 (≈ 98.9 µM)
CC/C=C/[C@@]1(C)SC(=O)C=C1O | 40.3 (≈ 219 µM)
C/C=C/[C@]1(C)SC(=O)C(C)=C1O | 37.1 (≈ 201 µM)
C/C=C/[C@]1(C)SC(=O)C=C1O | > 80
C=C[C@@]1(C)SC(=O)C=C1O | > 80
CCC/C=C/[C@@]1(C)SC(=O)C(C)=C1O | 41.5 (≈ 195 µM)
CCCCCC/C=C/[C@]1(C)SC(=O)C(C)=C1O (stereo in doubt; form 1) | 34.8 (≈ 137 µM)
C=C/C(C)=C/[C@@]1(C)SC(=O)C(C)=C1O [THIOLACTOMYCIN] | > 80
